Reference: paper PMC10610214 (Pharmaceuticals, 2023)
Where “and” joins values, the source holds several entries; their conditions need not be identical. Identical values can stand only once.

What was measured:
Aβ1-42 [1] = target: T1, Aβ1-42 (Homo sapiens, UniProt P05067); assay: Self-induced Aβ1-42 aggregation, thioflavin T fluorescence; format: biochemical; design: final concentrations of 20 μM of Aβ1-42 and 100 μM of test compound; purchased Beyotime Institute of Biotechnology; details: 100 μM inhibitor; ThT; 48 h; read-out: Inhibition of Self-Induced Aβ Aggregation (%)
Procedure: The inhibitory effect of compounds on Aβ42 was determined by Thioflavin T (ThT) fluorescence assay. In short, the dilution of Aβ42 solution (Beyotime Biotechnology, Hang Zhou, China) and test compounds was carried out with phosphate buffer (50 mM, pH 7.4) to obtain final concentrations of 20 μM of Aβ1-42 and 100 μM of test compound, such as curcumin (20 μM). The mixture was incubated in 96-well plates at room temperature for 48 h in the dark. When the incubation was complete, the samples were diluted to 200 µL (final volume) with glycine–NaOH buffer (50 mM, pH 8.0) containing 5 μM ThT.

BV2 cells = assay: Cytotoxicity in BV2 cells (MTT); format: cell-based
Procedure: The cytotoxicity and neuroprotective effects of the compounds on PC12 cells were evaluated by MTT assay. PC12 cells were seeded into a 96-well plate at a density of 5.0 × 10^3 cells per well. After the cells were incubated overnight, the old medium was discarded. The cells were incubated for another 24 h with fresh medium containing compounds at a concentration of 30 or 50 μM. A total of 20 μL of MTT solution (5 mg/mL, Sigma-Aldrich, Shanghai, China) was then added per well, and the cells were incubated for an additional 4 h. Afterwards, the supernatant was removed and 150 μL of DMSO was added to solubilize formazan crystals. The 96-well plate was placed on the shaker for 10–15 min, and then the absorbance at 492 nm was measured by a microplate reader.
The cytotoxicity of compounds on BV2 cells were evaluated by MTT assay and similar to those described in Section 2.5. The NO concentrations in medium were determined using Griess Reagent assay (Beyotime) in accordance with a previously reported method. Nitrite is reduced to nitrogen oxide using Griess Reagent I. Nitrogen oxide then reacts with Griess Reagent II forming a stable product that can be detected by its absorbance at […]. The two-step assay is simple, fast, and can detect nitrite levels as low as 1 nmol/well. BV2 cells were seeded into a 48-well plate at a density of 6.0 × 10^4 cells per well. […]

Aβ1-42 [2] = target: T1, Aβ1-42; assay: TEM of Aβ1-42 self-aggregation; details: 4h 100 μM, Aβ1-42 5 μM, 48 h
Procedure: Transmission Electron Microscope (TEM) studies were performed as previously described. […] After 2 days, a copper mesh was used to adsorb the samples, then stained with phosphotungstic acid, and the Aβ1-42 self-aggregation by TEM was observed (Talos L1200C, Thermo Fisher Scientific, Waltham, MA, USA).

DPPH radical scavenging = format: physicochemical; details: vs no-compound group
Procedure: DPPH is a commercially available stable organic nitrogen radical with maximum UV absorption at 515 nm. After reduction, the color of the solution fades (absorbance decreases). Therefore, this method was used to evaluate the antioxidant capacity of the compounds. In short, 50 μL of DPPH (140 μM) and 50 μL of different concentrations (10, 100, and 1000 μM) of compound 4h were added together in a 96-well plate and then incubated in the dark at 37 °C for 2 h. The absorbance was measured at 515 nm through the multifunctional microplate reader. The scavenging rate (SR) of DPPH radicals was calculated by the following formula: SR = (1 − Ac/A0) × 100%, where “Ac” is the absorbance of DPPH and the compound solution incubating, and “A0” is the absorbance of the DPPH radical-ethanol solution alone. The experimental results are expressed as the average of three tests.

H2O2-induced PC12 cells = assay: Neuroprotection against H2O2-induced PC12 cell injury (MTT); format: cell-based; details: H2O2 250 μM, mean ± SEM
Procedure: Neuroprotection assay is similar to cytotoxicity. Oxidative cellular damage caused by H2O2 has become one of the important methods to study oxidative damage in neural cells. PC12 cells were seeded into a 96-well plate at a density of 5.0 × 10^3 cells per well. After the cells were incubated overnight, the old medium was discarded. […] After incubating overnight, 20 μL of MTT solution (5 mg/mL, Sigma-Aldrich) was added per well, and the cells were incubated for an additional 4 h. Afterwards, the supernatant was removed and 150 μL of DMSO was added. The 96-well plate was placed on the shaker for 10–15 min, and then the absorbance at 492 nm was measured by a microplate reader.

[3] = target: T2, BuChE (from equine serum) (Equus caballus, UniProt P81908); assay: biochemical; details: mean ± SD of three experiments, read-out: BuChE Inhibition (IC50)
T2 construct: BuChE (from equine serum); purchased Sigma Chemical Company (St. Louis, MO, USA); host or cells: equine serum
Procedure: (§1) The ChE inhibitory activity of the test compounds was determined using the modified Ellman’s method. The compounds were dissolved in DMSO (10 mmol/L) and then diluted with PB (phosphate buffer) solution to attain a range of final concentrations. […] Briefly, 100 μL of different concentrations of the test or standard compounds and 100 μL of AChE/BuChE (0.5 U/mL) were added into 48-well plates and then co-incubated at 37 °C for 30 min. […] All concentrations mentioned are final.

AChE (from electric eel) = target: T3, AChE (from electric eel) (Electrophorus electricus, UniProt O42275); assay: biochemical
T3 construct: AChE (from electric eel); purchased Sigma Chemical Company (St. Louis, MO, USA)
Procedure: as §1

T1 sequence (P05067 672-713 limits assumed): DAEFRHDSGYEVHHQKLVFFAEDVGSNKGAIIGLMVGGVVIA
T3 sequence (O42275 24-633): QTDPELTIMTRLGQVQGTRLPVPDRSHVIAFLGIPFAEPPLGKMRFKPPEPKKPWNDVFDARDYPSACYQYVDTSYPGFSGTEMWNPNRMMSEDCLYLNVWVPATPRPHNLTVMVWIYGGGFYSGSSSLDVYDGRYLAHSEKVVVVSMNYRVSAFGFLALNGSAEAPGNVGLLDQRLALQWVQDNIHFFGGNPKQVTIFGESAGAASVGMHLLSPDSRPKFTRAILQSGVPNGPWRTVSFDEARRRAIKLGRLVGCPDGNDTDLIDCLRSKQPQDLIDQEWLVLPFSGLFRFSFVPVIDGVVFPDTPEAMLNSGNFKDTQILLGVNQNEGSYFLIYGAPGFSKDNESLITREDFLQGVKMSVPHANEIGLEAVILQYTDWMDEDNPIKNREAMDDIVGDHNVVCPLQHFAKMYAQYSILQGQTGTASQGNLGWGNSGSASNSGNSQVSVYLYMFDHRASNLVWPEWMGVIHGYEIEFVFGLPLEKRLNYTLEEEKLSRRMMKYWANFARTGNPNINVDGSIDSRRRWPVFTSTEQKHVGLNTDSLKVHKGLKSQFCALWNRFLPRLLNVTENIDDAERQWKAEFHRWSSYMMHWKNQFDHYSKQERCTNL
T2 sequence (P81908 whole entry): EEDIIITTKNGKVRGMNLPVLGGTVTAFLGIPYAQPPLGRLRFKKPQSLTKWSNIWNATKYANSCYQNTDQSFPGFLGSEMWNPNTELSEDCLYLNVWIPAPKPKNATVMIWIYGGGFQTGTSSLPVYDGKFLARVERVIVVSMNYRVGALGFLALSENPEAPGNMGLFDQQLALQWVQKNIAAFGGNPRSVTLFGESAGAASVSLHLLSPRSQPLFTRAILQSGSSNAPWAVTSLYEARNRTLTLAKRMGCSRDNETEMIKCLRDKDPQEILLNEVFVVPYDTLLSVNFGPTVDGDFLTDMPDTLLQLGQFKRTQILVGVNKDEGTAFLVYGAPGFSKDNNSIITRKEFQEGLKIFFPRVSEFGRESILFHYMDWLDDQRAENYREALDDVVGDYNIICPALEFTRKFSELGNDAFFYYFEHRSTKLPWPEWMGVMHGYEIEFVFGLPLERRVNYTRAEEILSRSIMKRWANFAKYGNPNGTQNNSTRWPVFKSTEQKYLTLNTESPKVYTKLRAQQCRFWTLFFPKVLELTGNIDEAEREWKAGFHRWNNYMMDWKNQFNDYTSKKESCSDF

With `O=C1c2cc(NS(=O)(=O)c3ccccc3F)ccc2-n2c1nc1ccccc1c2=O` [4h] the inhibition at 100 µM (Aβ1-42 [1]) was 63.2 ± 2.33%, the “Cell Viability (% of Control)” value (BV2 cells; 30 μM) was 101.23 ± 1.82 % of control and the “Cell Viability (% of Control)” value (BV2 cells; 50 μM) was 97.44 ± 1.36 % of control. For the same compound, the “Morphology of Aβ1-42 aggregates (TEM)” value (Aβ1-42 [2]) was “aggregation of Aβ1-42 samples was remarkably reduced”, the “Concentration of DPPH (%)” value (DPPH radical scavenging; 10 μM compound) was 84.76 ± 4.21% and 84.76% and the “Concentration of DPPH (%)” value (DPPH radical scavenging; 100 μM compound) was 74.6 ± 2.51%. For the same compound, the “Concentration of DPPH (%)” value (DPPH radical scavenging; 1000 μM compound) was 36.51 ± 2.78% and 36.51%, the “H2O2-Induced PC12 Cell Viability (% of Control)” value (H2O2-induced PC12 cells; compound 10 μM) was 61.66 ± 1.3 % of Control and the “H2O2-Induced PC12 Cell Viability (% of Control)” value (H2O2-induced PC12 cells; compound 30 μM) was 71.31 ± 1.9 % of Control. The IC50 [3] was 6.11 ± 0.15 µM, the IC50 (AChE (from electric eel); AChE from electric eel, mean ± SD of three experiments, read-out: AChE Inhibition (IC50)) was 0.13 ± 0.04 µM and the “Selective Index, IC50 (BChE)/IC50 (AChE)” value (AChE (from electric eel); AChE selectivity index) was 47.
